Results as given in US9789082B2, “Somatostatin receptor subtype 4 (SSTR4) agonists” (Centrexion Therapeutics Corporation, priority 2013, dated 2017).

Columns and labels:
[1] = target: human Somatostatin 4 receptor (SSTR4) (Homo sapiens (Human), UniProt P31391); experiment: cAMP assay with human somatostatin 4 receptor (hSSTR4 expressing H4 cells); format: cell-based; details: cAMP assay, read-out: SSTR4 agonism EC50
Experimental: Camp Assay Method Description for cAMP Assay with Human Somatostatin 4 Receptor
The activation of the SSTR4 receptor (Gi coupled) causes an inhibition of intracellular cAMP after stimulation with Forskolin, which can be quantifiable by use of a suitable assay Kit and an adequate plate reader. This technique is used to characterize pharmacological effects of the SSTR4 receptor agonists by use of hSSTR4 expressing H4 cells.
Compounds are dissolved and diluted in DMSO. The final test solution contains 1% DMSO. […] Cells are centrifuged and suspended in assay buffer (incl. 1:100 diluted Alexa antibody).
For the assay 5 μl of a cell suspension (approximately 5000 cells/well)—incl. Alexa antibody (diluted 1:100) are added into a 384 well MTP microtitre plate excepting one row or column (depending on the plate layout), which is reserved for the standard curve. Then 2 μl of compound sample is added as concentration response curve (e.g. 1e-5 M to 6e-10 M), usually in triplicates. Each assay contains incubations with vehicle controls instead of compound as controls for non-inhibited cAMP generation (100% CTL; ‘high values’) and incubations with 1 μM Somatosatin as controls for full inhibition and background (0% CTL; […]). […] Then the plates are shaken briefly and incubated for 60 min at room temperature. After 60 min 10 μl of the detection mix is added into all wells followed by an additional incubation period of 1 h. The plates are read in a suitable plate reader.
From this ratio, cAMP concentrations are calculated from standard curve and the EC50 is estimated by least square curve fit program.
The EC50 values were obtained with the aid of the above described cAMP ASSAY.

[2] = Metabolic stability in pooled human liver microsomes (half-life); format: in vitro ADME; details: pooled human liver microsomes, pH 7.6, 37° C., 1 μM test compound, read-out: Half-life t1/2
Experimental: The metabolic stability of the compounds according to the invention may be investigated as follows:
The metabolic degradation of the test compound is assayed at 37° C. with pooled human liver microsomes. The final incubation volume of 100 μl per time point contains TRIS buffer pH 7.6 at room temperature (0.1 M), magnesium chloride (5 mM), microsomal protein (1 mg/mL) and the test compound at a final concentration of 1 μM. Following a short preincubation period at 37° C., the reactions are initiated by addition of beta-nicotinamide adenine dinucleotide phosphate, reduced form (NADPH, 1 mM), and terminated by transferring an aliquot into solvent after different time points. After centrifugation (10000 g, 5 min), an aliquot of the supernatant is assayed by LC-MS/MS for the amount of parent compound. The half-life is determined by the slope of the semi-logarithmic plot of the concentration-time profile.

Chain of human Somatostatin 4 receptor (SSTR4) (P31391 whole entry): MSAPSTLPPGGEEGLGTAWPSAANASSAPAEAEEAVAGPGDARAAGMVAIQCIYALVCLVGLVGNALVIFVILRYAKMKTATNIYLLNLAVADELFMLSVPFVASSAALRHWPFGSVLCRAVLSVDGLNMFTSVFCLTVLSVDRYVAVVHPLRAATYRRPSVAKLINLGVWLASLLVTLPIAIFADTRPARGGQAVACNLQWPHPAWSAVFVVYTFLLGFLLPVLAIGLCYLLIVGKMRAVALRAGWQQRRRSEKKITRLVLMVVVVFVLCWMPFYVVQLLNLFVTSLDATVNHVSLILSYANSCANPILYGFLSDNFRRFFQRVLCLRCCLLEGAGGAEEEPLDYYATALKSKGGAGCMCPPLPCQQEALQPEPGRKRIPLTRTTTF

Row | SMILES | EC50 [1] [nM] | half-life at 1 μM [2] [h]
1 | Cc1ccnnc1OCC(C)(C)NC(=O)[C@H]1[C@@H]2CNC[C@@H]21.Cl [Example 67] | 66.3 | > 2.17
2 | CC(C)(NC(=O)[C@H]1[C@@H]2CNC[C@@H]21)c1ncc2ccccn12.Cl [Example 68] | 4.7 | > 2.17
3 | Cc1ccccc1OCC(C)(C)NC(=O)[C@H]1[C@@H]2CN(C)C[C@@H]21.Cl [Example 71] | 26.9 | 2
4 | Cc1ccc(C(C)(C)NC(=O)[C@H]2[C@@H]3CNC[C@@H]32)n2ccnc12 [Example 83] | 11 | > 2.17
5 | CC(C)(NC(=O)[C@H]1[C@@H]2CNC[C@@H]21)c1cc2ccccn2c1 [Example 87] | 22.9 | > 2.17
6 | Cc1cccc2c(C(C)(C)NC(=O)[C@H]3[C@@H]4CNC[C@@H]43)ncnc12 [Example 88] | 0.8 | > 2.17
7 | CC(C)(NC(=O)[C@H]1[C@@H]2CNC[C@@H]21)c1nc(C2CC2)c2ccccn12.Cl [Example 120] | 1.9 | > 2.17
8 | CC(C)(NC(=O)[C@H]1[C@@H]2CNC[C@@H]21)c1ncc2c(F)cccn12.Cl [Example 133] | 7.1 | > 2.17
9 | Cc1cccn2c(C3(NC(=O)[C@H]4[C@@H]5CNC[C@@H]54)CCC3)ncc12 [Example 137] | 0.8 | > 2.17
10 | COc1cccn2c(C(C)(C)NC(=O)[C@H]3[C@@H]4CNC[C@@H]43)ncc12 [Example 140] | 0.6 | > 2.17
11 | Cc1cccn2c(C(C)(C)NC(=O)[C@H]3[C@@H]4CNC[C@@H]43)nnc12 [Example 142] | 4 | > 2.17

Results, then the compound that gave them:

Row | EC50 [1] [nM] | half-life at 1 μM [2] [h] | SMILES
12 | 5.7 | > 2.17 | CC(C)(COc1ccccc1C1CC1)NC(=O)[C@H]1[C@@H]2CNC[C@@H]21 [Example 70]
13 | 1.6 | 0.6 | Cn1nc(C(C)(C)NC(=O)[C@H]2[C@@H]3CNC[C@@H]32)c2c(F)cccc21 [Example 74]
14 | 0.4 | > 2.17 | Cn1nc(C(C)(C)NC(=O)[C@H]2[C@@H]3CNC[C@@H]32)c2ccc(F)cc21 [Example 75]
15 | 0.8 | > 2.17 | Cn1nc(C(C)(C)NC(=O)[C@H]2[C@@H]3CNC[C@@H]32)c2cccc(C(F)(F)F)c21 [Example 76]
16 | 3.6 | > 2.17 | CCn1nc(C(C)(C)NC(=O)[C@H]2[C@@H]3CNC[C@@H]32)c2ccccc21 [Example 95]
17 | 2.3 | > 2.17 | CC(C)(NC(=O)[C@H]1[C@@H]2CNC[C@@H]21)c1noc2c(C(F)(F)F)cccc12 [Example 102]
18 | 0.4 | > 2.17 | Cn1nc(C(C)(C)NC(=O)[C@H]2[C@@H]3CNC[C@@H]32)c2cccc(F)c21 [Example 105]
19 | 0.3 | > 2.17 | CC(C)(NC(=O)[C@H]1[C@@H]2CNC[C@@H]21)c1n[nH]c2c(F)cccc12 [Example 109]
20 | 14.5 | > 2.17 | CC(NC(=O)[C@H]1[C@@H]2CNC[C@@H]21)c1nn(C)c2ccccc12 (stereo partly drawn) [Example 111]
21 | 4.7 | > 2.17 | CC(NC(=O)[C@H]1[C@@H]2CNC[C@@H]21)c1nn(C)c2c(Cl)cccc12 (stereo partly drawn) [Example 114]
22 | 6.8 | > 2.17 | Cc1cccn2c(C(C)(C)NC(=O)[C@H]3[C@@H]4CNC[C@@H]43)nc(C(F)(F)F)c12.Cl [Example 129]
23 | 10.9 | > 2.17 | CC(C)(NC(=O)[C@H]1[C@@H]2CNC[C@@H]21)c1nc(C(F)(F)F)nc2ccccc12 [Example 139]
24 | 3.3 | > 2.17 | CC(C)(NC(=O)[C@H]1[C@@H]2CNC[C@@H]21)c1nc(C2CC2)nc2ccccc12 [Example 141]
